From US20080280879A1, “SUBSTITUTED HETEROCYCLIC DERIVATIVES AND THEIR PHARMACEUTICAL USE AND COMPOSITIONS” (priority 2007, published 2008)
≈ marks a conversion by molar mass, not a printed value.

Experiments:
Format in all cases: cell-based, Staphylococcus aureus
Staph aureus 1146 [1] = test: MIC, microtiter broth dilution (CLSI M7-A7), Assay 1, Table 12 column B, no serum; settings: for MIC: Staphylococcus aureus, 1146, Staph aureus 1146, Assay 1, no serum; for MIC, column B: Staph aureus 1146, Assay 1, no serum
Method in brief: (§1)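 MIC read as lowest drug level giving no macroscopically visible growth, μg/ml. Method: CLSI M7-A7 microtiter broth dilution, M100-S16 interpretation. Serum arm: inoculum in Mueller-Hinton Broth + 50% pooled inactivated human serum. Multiple runs → geometric mean.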

Staph aureus 1095 MRSA = test: MIC, microtiter broth dilution (CLSI M7-A7), Assay 1, Table 12 column A, no serum; settings: Assay 1, no serum; for MIC: Staphylococcus aureus, MRSA
Method in brief: as §1

Staph aureus 2812 = test: MIC, microtiter broth dilution (CLSI M7-A7), Assay 1, Table 12 column E, no serum; settings: for MIC: Staphylococcus aureus, 2812, Staph aureus 2812, Assay 1, no serum; for MIC, column E: Staph aureus 2812, Assay 1, no serum
Method in brief: as §1

Staph aureus 2811 = test: MIC, microtiter broth dilution (CLSI M7-A7), Assay 1, Table 12 column D, no serum; settings: for MIC: Staphylococcus aureus, 2811, Staph aureus 2811, Assay 1, no serum; for MIC, column D: Staph aureus 2811, Assay 1, no serum
Method in brief: as §1

Staph aureus 1146 [2] = test: MIC in Mueller-Hinton Broth with 50% pooled inactivated human serum, Assay 1, Table 12; settings: for MIC: Staphylococcus aureus, 1146, Staph aureus 1146, Assay 1, 50% human serum, read-out: MIC, column C; for MIC, column C: Staph aureus 1146, Assay 1, 50% human serum
Method in brief: as §1

| Molecule | MIC (Staph aureus 1146 [1]) [µg/mL] | MIC (Staph aureus 1095 MRSA) [µg/mL] | MIC (Staph aureus 2812) [µg/mL] | MIC (Staph aureus 2811) [µg/mL] | MIC (Staph aureus 1146 [2]) [µg/mL] | MIC, column B (Staph aureus 1146 [1]) | MIC, column A (Staph aureus 1095 MRSA) [µg/mL] | MIC, column E (Staph aureus 2812) [µg/mL] | MIC, column D (Staph aureus 2811) [µg/mL] | MIC, column C (Staph aureus 1146 [2]) [µg/mL] |
| --- | --- | --- | --- | --- | --- | --- | --- | --- | --- | --- |
| COc1ccc2nccc(CCCC3(C(=O)O)CCN(C4CC(c5ccccc5)C4)CC3)c2c1 (stereo not drawn) [Example 93, 4-[3-(6-methoxyquinolin-4-yl)propyl]-1-(3-phenylcyclobutyl)piperidine-4-carboxylic acid] | 2 (≈ 4.36 µM) | 2 (≈ 4.36 µM) | 1 (≈ 2.18 µM) | 2 (≈ 4.36 µM) | > 64 | – | – | – | – | – |
| COc1ccc2nccc(C(O)CC[C@@H]3CCN(C4CCN(c5ccccc5)C4)C[C@@H]3C(=O)O)c2c1 (stereo partly drawn) [Example 185, (3R,4R)-4-[3-hydroxy-3-(6-methoxyquinolin4-yl)propyl]-1-(1-phenylpyrrolidin-3-yl)piperidine-3-carboxylic acid] | 2 (≈ 4.08 µM) | 8 (≈ 16.3 µM) | 4 (≈ 8.17 µM) | 8 (≈ 16.3 µM) | > 64 | – | – | – | – | – |
| COc1ccc2ncc(F)c(C(O)CC[C@@H]3CCN(C4CC(c5cc(F)ccc5F)C4)C[C@@H]3C(=O)O)c2n1 (stereo partly drawn) [Example 217, (3R,4R)-1-[3-(2,5-difluorophenyl)cyclobutyl]-4-[3-(3-fluoro-6-methoxy-1,5-naphthyridin-4-yl)-3-hydroxypropyl]piperidine-3-carboxylic acid] | – | – | – | – | – | 0.0600 µg/mL (≈ 0.113 µM) | 0.125 (≈ 0.236 µM) | 0.0600 (≈ 0.113 µM) | 0.125 (≈ 0.236 µM) | 2.00 (≈ 3.78 µM) |
| COc1ccc2ncc(Cl)c(C(O)CC[C@@H]3CCN(C4CC(c5cc(F)ccc5F)C4)C[C@@H]3C(=O)O)c2c1 (stereo partly drawn) [Example 210, (3R,4R)-4-[3-(3-chloro-6-methoxyquinolin-4-yl)-3-hydroxypropyl]-1-[3-(2,5-difluorophenyl)cyclobutyl]piperidine-3-carboxylic acid] | – | – | – | – | – | <0.0625 µg/mL | <0.0625 | <0.0625 | <0.0625 | 16.0 (≈ 29.4 µM) |
| COc1ccc2ncc(F)c(C(O)CC[C@@H]3CCN(C4CC(c5ccccc5)C4)C[C@@H]3C(=O)O)c2c1 (single isomer, unassigned) [Example 16] | – | – | – | – | – | <=.0884 μg/ml | 0.125 (≈ 0.254 µM) | 0.125 (≈ 0.254 µM) | 0.125 (≈ 0.254 µM) | 1 (≈ 2.03 µM) |
| COc1ccc2nccc(C(CC[C@@H]3CCN(C4CC(c5ccccc5)C4)C[C@@H]3C(=O)O)OC)c2c1 (stereo partly drawn) [Example 11, (3R,4R)-4-[3-methoxy-3-(6-methoxyquinolin-4-yl)propyl]-1-(3-phenylcyclobutyl)piperidine-3-carboxylic acid] | – | – | – | – | – | 2 µg/mL (≈ 4.09 µM) | 1 (≈ 2.05 µM) | 2 (≈ 4.09 µM) | 2 (≈ 4.09 µM) | >64 |
| (3R,4R)-1-(1-cyclobutylazetidin-3-yl)-4-[3-hydroxy-3-(6-methoxyquinolin-4-yl)propyl]piperidine-3-carboxylic acid [Example 130] | – | – | – | – | – | >64 µg/mL | >64 | >64 | >64 | >64 |
| COc1ccc2nccc(C(O)CC[C@@H]3CCN(C4CC(c5cc(C)on5)C4)C[C@@H]3C(=O)O)c2c1 (stereo partly drawn) [Example 171, (3R,4R)-4-[3-Hydroxy-3-(6-methoxy-quinolin-4-yl)-propyl}-1-[3-(5-methyl-isoxazol-3-yl)-cyclobutyl]-piperidine-3-carboxylic acid] | 8 (≈ 16.7 µM) | 16 (≈ 33.4 µM) | 8 (≈ 16.7 µM) | 8 (≈ 16.7 µM) | 16 (≈ 33.4 µM) | – | – | – | – | – |
| COc1ccc2ncc(F)c([C@@H](O)CC[C@@H]3CCN(C4CC(c5cc(F)cc(F)c5)C4)C[C@@H]3C(=O)O)c2c1 (stereo partly drawn) [Example 221, (3R,4R)-1-[3-(3,5-difluorophenyl)cyclobutyl]-4-[(3S)-3-(3-fluoro-6-methoxyquinolin-4-yl)-3-hydroxypropyl] piperidine-3-carboxylic acid] | 0.25 (≈ 0.473 µM) | 1 (≈ 1.89 µM) | 0.25 (≈ 0.473 µM) | 0.25 (≈ 0.473 µM) | 4 (≈ 7.57 µM) | – | – | – | – | – |
